Values quoted from earlier work, collected in patent US6194433A, “Sexual dysfunction in females” (Cutler; Neal R., priority 1998, dated 2001).

Columns and labels:
[1] = not given; remark: listed apart in the source
phosphodiesterase III = conditions: Gristwood et al., Br. J. Pharmacol. 105:985 (1992)
phosphodiesterase = conditions: Frodsham et al., Eur. J. Pharmacol. 211:383 (1992)
[2] = Kelso et al., J Cardiovasc. Pharmacol. 25:376 (1995)
[3] = Perreault et al., Br. J Pharmacol. 106:511 (1992)
[4] = following coronary artery ligation; Jones et al., Br. J. Pharmacol. 108:1111 (1993)

time of peak metabolite plasma levels (following oral dosage of flosequinan)	SMILES	time of peak plasma concentrations of flosequinan (following oral administration) [h]	mean absolute bioavailability (oral, single dose of fifty milligrams) [%]	solubility in organic solvents ([1]; many organic solvents)	water solubility ([1]; water)	inhibition of phosphodiesterase III (phosphodiesterase III)	phosphodiesterase inhibition as relevant to efficacy in heart failure (phosphodiesterase)	usefulness in the treatment of heart failure [2]	effect in patients with end-stage failure [3]	effect on mortality or arrhythmias [4]
about seven	Cn1cc(S(C)(=O)=O)c(=O)c2ccc(F)cc21 [metabolite]									
	Cn1cc([S+](C)[O-])c(=O)c2ccc(F)cc21 (stereo not shown) [flosequinan, 7-fluoro-1-methyl-3-methylsulphinyl-4-quinolone]	1 to 2	72	soluble in many organic solvents	water soluble	selective inhibitor of phosphodiesterase III	questionable	useful to some degree	little effect	does not affect mortality or arrhythmias
